We go through two compounds from ChEMBL document CHEMBL3739353, “Arthroamide, a Cyclic Depsipeptide with Quorum Sensing Inhibitory Activity from Arthrobacter sp” (J Nat Prod, 2015).

Calls of active or inactive are those of the source. The calls are words filed in the database; no cut-off is given here.

One test has as its system Candida albicans. Kind of test: Antimicrobial activity against Candida albicans at 100 ug/ml. The format is functional, organism-based.
The test system of another test is Micrococcus luteus. The test can be described thus: Antimicrobial activity against Micrococcus luteus at 100 ug/ml. The format is functional, organism-based.
Test [1] addresses T1, Accessory gene regulator protein A (Staphylococcus aureus) (UniProt P0A0I7).
T1 sequence (whole entry): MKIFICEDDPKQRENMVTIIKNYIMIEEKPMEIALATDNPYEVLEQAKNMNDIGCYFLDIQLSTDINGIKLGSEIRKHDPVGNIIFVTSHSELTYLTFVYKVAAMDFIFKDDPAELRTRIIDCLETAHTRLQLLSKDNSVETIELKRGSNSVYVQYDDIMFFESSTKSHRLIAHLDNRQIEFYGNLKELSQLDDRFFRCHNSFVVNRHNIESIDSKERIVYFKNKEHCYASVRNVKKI
The test can be described thus: Inhibition of agr-mediated quorum sensing in Staphylococcus aureus at 5 to 10 uM after 5 hrs by luminescence analysis.

In another test the test system is Escherichia coli. Kind of test: Antimicrobial activity against Escherichia coli at 100 ug/ml. The format is functional, organism-based.

What is called inhibition is the percentage by which the read-out fell short of the control. In the case of `CC(C)[C@@H]1NC(=O)C[C@H](/C=C/c2ccccc2)OC(=O)[C@H](C(C)C)NC(=O)[C@H](C(C)C)NC(=O)[C@@H](C)NC1=O`, the result in the test with Candida albicans, in the test with Micrococcus luteus and in the test with Escherichia coli was inactive. Also, the inhibition in test [1] worked out at 10%.

As to `CC[C@H](C)[C@@H]1NC(=O)[C@@H](C)NC(=O)[C@H](C(C)C)NC(=O)C[C@H](/C=C/c2ccccc2)OC(=O)[C@H](C(C)C)NC1=O`, the inhibition in test [1] stood at 10%.
